What all share (format): cell-based
One assay relates to Hs578T. Nature of the assay: Apoptosis assay (Cellomics, nucleus condensation). Particulars: Homo sapiens, Hs-578T, Table III, read-out: Apoptosis induction in Hs578T. In short, it runs like this: (§1)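 Apoptosis scored by automated microscopy of Hoechst-stained live nuclei, 24 and 48 h after treatment with 0.39–12.5 μM compound or DMSO.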
Assay [1] deals with C8161. Briefly: Apoptosis assay (Cellomics, nucleus condensation). Particulars: Homo sapiens, Table III, read-out: Apoptosis induction in C8161. In short, it runs like this:
as §1

The next assay relates to U118. Briefly: Apoptosis assay (Cellomics, nucleus condensation). Particulars: Table III, read-out: Apoptosis induction in U118. In short, it runs like this:
as §1

For assay [2], the system named is SF763. Nature of the assay: Apoptosis assay (Cellomics, nucleus condensation). As to conditions: Table III, read-out: Apoptosis induction in SF763. Summed up:
as §1

In assay [3] the test system is U138. Briefly: Apoptosis assay (Cellomics, nucleus condensation). As to conditions: Table III, read-out: Apoptosis induction in U138. Summed up:
as §1

The subject of a further assay is SF126. Nature of the assay: Apoptosis assay (Cellomics, nucleus condensation). As to conditions: Homo sapiens, SF-126, Table III, read-out: Apoptosis induction in SF126. In short, it runs like this: as §1
The subject of the next assay is cells. Briefly: Boyden chamber migration assay (Table VI). As to conditions: Homo sapiens, Hs-578T, 16 h, Hs578T cells; 16 h migration. Summed up: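 20000 cells seeded in the upper compartment in 0% FCS plus 0.1% BSA and left 16 h to migrate through […] membrane toward 10% FCS medium below. Non-migrated cells swabbed off; cells on the filter underside fixed and counted.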

For assay [4], the system named is C8161. Nature of the assay: Cell vitality assay (ATP assay, CellTiter-Glo). Particulars: Homo sapiens; C8161, 72 h; Table IIa; read-out: IC50 ATP-Assay after 72 h C8161. In short, it runs like this: (§2)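 1000 cells/well incubated 72 h with compound at 12.5 down to 0.195 μM (twofold steps) or DMSO control. Viability measured as cellular ATP by CellTiter-Glo luminescence; IC50 taken as the concentration giving 50% of the DMSO-control ATP level.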

The test system of assay [5] is SF763. Briefly: Cell vitality assay (ATP assay, CellTiter-Glo). Particulars: SF763, 72 h; Table IIa; read-out: IC50 ATP-Assay after 72 h SF763. In short, it runs like this: as §2
Assay [6] relates to U138. Nature of the assay: Cell vitality assay (ATP assay, CellTiter-Glo). As to conditions: U138, 72 h; Table IIa; read-out: IC50 ATP-Assay after 72 h U138. In short, it runs like this:
as §2

The subject of another assay is A172. Briefly: Cell vitality assay (ATP assay, CellTiter-Glo). Particulars: Homo sapiens, A 172; A172, 72 h; Table IIa; read-out: IC50 ATP-Assay after 72 h A172. Summed up: as §2
The subject of another assay is MDA-MB231. Nature of the assay: Cell vitality assay (ATP assay, CellTiter-Glo). As to conditions: Homo sapiens, MDA-MB-231. In short, it runs like this:
as §2

Where [7] appears, read: cell vitality assay, MDA-MB231, Table IIc, read-out: IC50 MDA-MB231.
[8] abbreviates: MDA-MB231, 72 h, Table IIa, read-out: IC50 ATP-Assay after 72 h MDA-MB231.

Where two headings read alike, the source gives them in different places. Where only a bound is given, the exact number is not on record here.

As for `COc1cc2c(Oc3ccc(NS(=O)(=O)c4cccc(-c5ccccc5)c4)cc3F)ccnc2cc1OCCCN1CCCCC1` [Example 8, Biphenyl-3-sulfonic acid {3-fluoro-4-[6-methoxy-7-(3-piperidin-1-yl-propoxy)-quinolin-4-loxy]-phenyl}-amide], the IC50 is not above 12.5 µM with Hs578T; not above 12.5 µM in the assay with C8161 [1]; not above 12.5 µM in the assay with U118; not above 12.5 µM in the assay with SF763 [2]; 12.5 to 50 µM with U138 [3]; not above 12.5 µM in the assay on SF126. For the same compound, the IC50 with cells was not above 5 µM; in the assay with C8161 [4], not above 12.5 µM; with SF763 [5], not above 12.5 µM; in the assay with U138 [6], not above 12.5 µM; in the assay with A172, not above 12.5 µM.
For the compound `COc1cc2c(Oc3ccc(NS(=O)(=O)c4cc(F)ccc4F)cc3F)ccnc2cc1OCCCN1CCN(C)CC1` [Example 12, 2,5-Difluoro-N-(3-fluoro-4-{6-methoxy-7-[3-(4-methyl-piperazin-1-yl)-propoxy]-quinolin-4-yloxy}-phenyl)-benzenesulfonamide], the IC50 is 12.5 to 50 µM in the assay on C8161 [1], not above 5 µM in the assay on cells, not above 12.5 µM with MDA-MB231 (setting [7]) and not above 12.5 µM with A172.
`COc1cc2c(Oc3ccc(NS(=O)(=O)c4ccccc4[N+](=O)[O-])cc3F)ccnc2cc1OCCCN1CCN(C)CC1` [Example 21, N-(3-Fluoro-4-{6-methoxy-7-[3-(4-methyl-piperazin-1-yl)-propoxy]-quinolin-4-yloxy}-phenyl)-2-nitro-benzenesulfonamide]: the IC50 in the assay on Hs578T was not above 12.5 µM; with C8161 [1] it was not above 12.5 µM; in the assay on U118 it was not above 12.5 µM; in the assay on SF763 [2] it was not above 12.5 µM; with U138 [3] it was 12.5 to 50 µM; with SF126, not above 12.5 µM. In addition, the IC50 was not above 5 µM with cells, 12.5 to 50 µM in the assay on C8161 [4], 12.5 to 50 µM in the assay with MDA-MB231 (setting [8]) and 12.5 to 50 µM in the assay with SF763 [5].
Regarding `COc1cc2c(Oc3ccc(NS(=O)(=O)c4ccccc4C(F)(F)F)cc3F)ccnc2cc1OCCCN1CCN(C)CC1` [Example 24, N-(3-Fluoro-4-{6-methoxy-7-[3-(4-methyl-piperazin-1-yl)-propoxy]-quinolin-4-yloxy}-phenyl)-2-trifluoromethyl-benzenesulfonamide], the IC50 with C8161 [1] was not above 12.5 µM; in the assay with cells, not above 5 µM; with MDA-MB231 (setting [7]), not above 12.5 µM.
On to `COc1cc2c(Oc3ccc(NS(=O)(=O)c4ccccc4Cl)cc3F)ccnc2cc1OCCCN1CCN(C)CC1` [Example 29, 2-Chloro-N-(3-fluoro-4-{6-methoxy-7-[3-(4-methyl-piperazin-1-yl)-propoxy]-quinolin-4-yloxy}-phenyl)-benzenesulfonamide], for which the IC50 in the assay on Hs578T is not above 12.5 µM; in the assay with C8161 [1], not above 12.5 µM; in the assay with SF763 [2], not above 12.5 µM; in the assay on U138 [3], 12.5 to 50 µM; with SF126, not above 12.5 µM; in the assay on cells, not above 5 µM. Also, the IC50 with C8161 [4] was not above 12.5 µM; in the assay on MDA-MB231 (setting [8]), not above 12.5 µM; in the assay with SF763 [5], 12.5 to 50 µM; with U138 [6], not above 12.5 µM.
`COC(=O)c1sccc1S(=O)(=O)Nc1ccc(Oc2ccnc3cc(OCCCN4CCCC(C)C4)c(OC)cc23)c(F)c1` (stereo not shown) [Example 66, 3-(3-Fluoro-4-{6-methoxy-7-[3-(3-methyl-piperidin-1-yl)-propoxy]-quinolin-4-yloxy}-phenylsulfamoyl)-thiophene-2-carboxylic acid methyl ester]: the IC50 with MDA-MB231 (setting [7]) and with A172 was not above 12.5 µM in each case.
Regarding `COc1cc2c(Oc3ccc(NS(=O)(=O)c4ccccc4C(F)(F)F)cc3F)ccnc2cc1OCCCN(C)C` [Example 100, N-{4-[7-(3-Dimethylamino-propoxy)-6-methoxy-quinolin-4-yloxy]-3-fluoro-phenyl}-2-trifluoromethyl-benzenesulfonamide], the IC50 is not above 12.5 µM in the assay on Hs578T; not above 12.5 µM with C8161 [1]; 12.5 to 50 µM in the assay on U118; not above 12.5 µM in the assay on SF763 [2]; not above 12.5 µM with U138 [3]; not above 12.5 µM in the assay on SF126. Besides, in the assay on A172, the IC50 was not above 12.5 µM.
For the compound `COC(=O)c1sccc1S(=O)(=O)Nc1ccc(Oc2ccnc3cc(OCCCN4CCOCC4)c(OC)cc23)c(F)c1` [Example 157, 3-{3-Fluoro-4-[6-methoxy-7-(3-morpholin-4-yl-propoxy)-quinolin-4-yloxy]-phenylsulfamoyl}-thiophene-2-carboxylic acid methyl ester], the IC50 with A172 is not above 12.5 µM.
With `COC(=O)c1sccc1S(=O)(=O)Nc1ccc(Oc2ccnc3cc(OCCCN4CCN(C)CC4)c(OC)cc23)c(F)c1` [Example 158, 3-(3-Fluoro-4-{6-methoxy-7-[3-(4-methyl-piperazin-1-yl)-propoxy]-quinolin-4-yloxy}-phenylsulfamoyl)-thiophene-2-carboxylic acid methyl ester], the IC50 in the assay with A172 was not above 12.5 µM.
On to `COc1cc2c(Oc3ccc(NS(=O)(=O)c4c(F)cccc4F)cc3F)ccnc2cc1OCCCN(C)C` [Example 178, N-{4-[7-(3-Dimethylamino-propoxy)-6-methoxy-quinolin-4-yloxy]-3-fluoro-phenyl}-2,6-difluoro-benzenesulfonamide], for which the IC50 in the assay on A172 is not above 12.5 µM.
Take `COc1cc2c(Oc3ccc(NS(=O)(=O)c4ccccc4OC(F)(F)F)cc3F)ccnc2cc1OCCCN(C)C` [Example 179, N-{4-[7-(3-Dimethylamino-propoxy)-6-methoxy-quinolin-4-yloxy]-3-fluoro-phenyl}-2-trifluoromethoxy-benzenesulfonamide]: in the assay on A172, the IC50 was not above 12.5 µM.
Take `COc1cc2c(Oc3ccc(NS(=O)(=O)c4c(Cl)cccc4Cl)cc3F)ccnc2cc1OCCCN(C)C` [Example 181, 2,6-Dichloro-N-{4-[7-(3-dimethylamino-propoxy)-6-methoxy-quinolin-4-yloxy]-3-fluoro-phenyl}-benzenesulfonamide]: the IC50 with A172 was not above 12.5 µM.
For `COC(=O)c1sccc1S(=O)(=O)Nc1ccc(Oc2ccnc3cc(OCCCN(C)C)c(OC)cc23)c(F)c1` [Example 184, 3-{4-[7-(3-Dimethylamino-propoxy)-6-methoxy-quinolin-4-yloxy]-3-fluoro-phenylsulfamoyl}-thiophene-2-carboxylic acid methyl ester], the IC50 in the assay with A172 is not above 12.5 µM.
As for `COc1cc2c(Oc3c(Cl)cc(NS(=O)(=O)c4c(F)cccc4F)cc3Cl)ccnc2cc1OCCCN1CCC(C)CC1` [Example 209, N-(3,5-Dichloro-4-{6-methoxy-7-[3-(4-methyl-piperidin-1-yl)-propoxy]-quinolin-4-yloxy}-phenyl)-2,6-difluoro-benzenesulfonamide], the IC50 in the assay on A172 was not above 12.5 µM.
On to `COc1cc2c(Oc3c(Cl)cc(NS(=O)(=O)c4ccccc4C(F)(F)F)cc3Cl)ccnc2cc1OCCCN1CCC(C)CC1` [Example 210, N-(3,5-Dichloro-4-{6-methoxy-7-[3-(4-methyl-piperidin-1-yl)-propoxy]-quinolin-4-yloxy}-phenyl)-2-trifluoromethyl-benzenesulfonamide], for which the IC50 in the assay on A172 was not above 12.5 µM.

These data come from US9169241B2, “Quinolinyloxyphenylsulfonamides” (Max-Planck-Gesellschaft Zur Forderung der Wissenschaften …, priority 2009, dated 2015).
